Measurements reported in US6936602B1, “Benzazepine derivatives, process for the preparation of the same and uses thereof” (Takeda Chemical Industries, Ltd., priority 1999, dated 2005).

SMILES	melting point [°C]
CCCOCCOc1ccc(-c2ccc3c(c2)C=C(C(=O)Nc2ccc(CN(C)C4CCOCC4)cc2)CCN3Cc2ccc(OC)cc2)cc1 [Compound 55, 1-(4-methoxybenzyl)-N-[4-[[N-methyl-N-(tetrahydropyran-4-yl)amino]methyl]phenyl]-7-(4-propoxyethoxyphenyl)-2,3-dihydro-1-benzazepine-4-carboxamide]	160 to 161
CCCCOCCOc1ccc(-c2ccc3c(c2)C=C(C(=O)Nc2ccc(CN(C)C4CCOCC4)cc2)CCN3Cc2cccs2)cc1 [Compound 60, 7-(4-butoxyethoxyphenyl)-N-[4-[[N-methyl-N-(tetrahydropyran-4-yl)amino]methyl]phenyl]-1-(2-thienylmethyl)-2,3-dihydro-1-benzazepine-4-carboxamide]	84 to 85
CCCOCCN(CC)c1ccc(-c2ccc3c(c2)C=C(C(=O)Nc2ccc(CN(C)C4CCOCC4)cc2)CCN3C=O)cc1 [Compound 6, 7-[4-[N-ethyl-N-(2-propoxyethyl)amino]phenyl]-1-formyl-N-[4-[[N-methyl-N-(tetrahydro-2H-pyran-4-yl)amino]methyl]phenyl]-2,3-dihydro-1H-1-benzazepine-4-carboxamide]	146 to 149
CCCCOCCOc1ccc(-c2ccc3c(c2)C=C(C(=O)Nc2ccc(CN(C)C4CCOCC4)cc2)CCN3)cc1 [Compound 28, 7-[4-(2-butoxyethoxy)phenyl]-N-[4-[[N-methyl-N-(tetrahydro-2H-pyran-4-yl)amino]methyl]phenyl]-2,3-dihydro-1H-1-benzazepine-4-carboxamide]	119 to 123
CC(C)OCCOc1ccc(-c2ccc3c(c2)C=C(C(=O)N(c2ccc(CN(C)C4CCOCC4)cc2)S(C)(=O)=O)CCN3)cc1 [Compound 15, 1-methylsulfonyl N-[4-[[N-methyl-N-(tetrahydro-2H-pyran-4-yl)amino]methyl]phenyl]-7-[4-(2-propoxy)ethoxyphenyl]-2,3-dihydro-1H-1-benzazepine-4-carboxamide]	161 to 162
CCCCOCCOc1ccc(-c2ccc3c(c2)C=C(C(=O)Nc2ccc(CN(C)C4CCOCC4)cc2)CCN3Cc2ccoc2)cc1 [Compound 62, 7-(4-butoxyethoxyphenyl)-1-(3-furylmethyl)-N-[4-[[N-methyl-N-(tetrahydropyran-4-yl)amino]methyl]phenyl]-2,3-dihydro-1-benzazepine-4-carboxamide]	116 to 117
CCOCCCOc1ccc(-c2ccc3c(c2)C=C(C(=O)Nc2ccc(CN(C)C4CCOCC4)cc2)CCN3S(C)(=O)=O)cc1 [Compound 8, 7-[4-(3-ethoxypropoxy)phenyl)-1-methanesulfonyl-N-[4-[[N-methyl-N-(tetrahydro-2H-pyran-4-yl)amino]methyl]phenyl]-2,3-dihydro-1H-1-benzazepine-4-carboxamide]	157 to 160
CCCCOCCOc1ccc(-c2ccc3c(c2)C=C(C(=O)Nc2ccc(CN(C)C4CCOCC4)cc2)CCN3Cc2cc(OC)ccc2OC)cc1 [Compound 65, 7-(4-butoxyethoxyphenyl)-1-(2,5-dimethoxybenzyl)-N-[4-[[N-methyl-N-(tetrahydropyran-4-yl)amino]methyl]phenyl]-2,3-dihydro-1-benzazepine-4-carboxamide]	143 to 144
CN1CCC(C(=O)Nc2ccc(CN(C)C3CCOCC3)cc2)=Cc2cc(-c3ccc4c(c3)OCCO4)ccc21 [Compound 24, 7-(2,3-dihydro-1,4-benzodioxin-6-yl)-1-methyl-N-[4-[[N-methyl-N-(tetrahydro-2H-pyran-4-yl)amino]methyl]phenyl]-2,3-dihydro-1H-1-benzazepine-4-carboxamide]	164 to 165
CCCCOCCOc1ccc(-c2ccc3c(c2)C=C(C(=O)Nc2ccc(CN(C)C4CCOCC4)cc2)CCN3Cc2ccc(OC)cc2)cc1 [Compound 56, 7-(4-butoxyethoxyphenyl)-1-(4-methoxybenzyl)-N-[4-[[N-methyl-N-(tetrahydropyran-4-yl)amino]methyl]phenyl]-2,3-dihydro-1-benzazepine-4-carboxamide]	151 to 152
CCCCOCCOc1ccc(-c2ccc3c(c2)C=C(C(=O)Nc2ccc(CN(C)C4CCOCC4)cc2)CCN3C2CC2)cc1 [Compound 31, 7-[4-(2-butoxyethoxy)phenyl]-1-cyclopropyl-N-[4-[[N-methyl-N-(tetrahydro-2H-pyran-4-yl)amino]methyl]phenyl]-2,3-dihydro-1H-1-benzazepine-4-carboxamide]	117 to 120
CCCCOCCOc1ccc(-c2ccc3c(c2)C=C(C(=O)Nc2ccc(CN(C)C4CCOCC4)cc2)CCN3Cc2ccccc2OCC)cc1 [Compound 63, 7-(4-butoxyethoxyphenyl)-1-(2-ethoxybenzyl)-N-[4-[[N-methyl-N-(tetrahydropyran-4-yl)amino]methyl]phenyl]-2,3-dihydro-1-benzazepine-4-carboxamide]	104.5 to 105.5
CCCCOCCOc1ccc(-c2ccc3c(c2)C=C(C(=O)Nc2ccc(CN(C)C4CCOCC4)cc2)CCN3c2ccc(S(=O)(=O)N(C)C)cc2)cc1 [Compound 47, 7-[4-(2-butoxyethoxy)phenyl]-1-(N,N-dimethyl-4-sulfamoylphenyl)-N-[4-[[N-methyl-N-(tetrahydro-2H-pyran-4-yl)amino]methyl]phenyl]-2,3-dihydro-1H-1-benzazepine-4-carboxamide]	94 to 98
CCCOCCOc1ccc(-c2ccc3c(c2)C=C(C(=O)Nc2ccc(CN(C)C4CCOCC4)cc2)CCN3Cc2ccsc2)cc1 [Compound 57, N-[4-[[N-methyl-N-(tetrahydropyran-4-yl)amino]methyl]phenyl]-7-(4-propoxyethoxyphenyl)-1-(3-thienylmethyl)-2,3-dihydro-1-benzazepine-4-carboxamide]	131.5 to 132.5
CCCCOCCOc1ccc(-c2ccc3c(c2)C=C(C(=O)Nc2ccc(CN(C)C4CCOCC4)cc2)CCN3Cc2ccccc2OC)cc1 [Compound 52, 7-(4-butoxyethoxyphenyl)-1-(2-methoxybenzyl)-N-[4-[[N-methyl-N-(tetrahydropyran-4-yl)amino]methyl]phenyl]-2,3-dihydro-1-benzazepine-4-carboxamide]	111.5 to 112.5
CCOCCOc1ccc(-c2ccc3c(c2)C=C(C(=O)Nc2ccc(CN(C)C4CCOCC4)cc2)CCN3C=O)cc1Cl [Compound 21, 7-[3-chloro4-(2-ethoxy)ethoxyphenyl]-1-formyl-N-[4-[[N-methyl-N-(tetrahydro-2H-pyran-4-yl)amino]methyl]phenyl]-2,3-dihydro-1H-1-benzazepine-4-carboxamide]	198 to 200
CCCOCCOc1ccc(-c2ccc3c(c2)C=C(C(=O)Nc2ccc(CN(C)C4CCOCC4)cc2)CCN3C(=O)CC)cc1 [Compound 29, 1-propionyl-7-[4-(2-propoxyethoxy)phenyl]-N-[4-[[N-methyl-N-(tetrahydro-2H-pyran-4-yl)amino]methyl]phenyl]-2,3-dihydro-1H-1-benzazepine-4-carboxamide]	167 to 169
CCCCOCCOc1ccc(-c2ccc3c(c2)C=C(C(=O)Nc2ccc(CN(C)C4CCOCC4)cc2)CCN3Cc2cccc(OCCC)c2)cc1 [Compound 64, 7-(4-butoxyethoxyphenyl)-N-[4-[[N-methyl-N-(tetrahydropyran-4-yl)amino]methyl]phenyl]-1-(3-propoxybenzyl)-2,3-dihydro-1-benzazepine-4-carboxamide]	114.5 to 115.5
CCCCOCCOc1ccc(-c2ccc3c(c2)C=C(C(=O)Nc2ccc(CN(C)C4CCOCC4)cc2)CCN3Cc2cccc(OC)c2)cc1 [Compound 54, 7-(4-butoxyethoxyphenyl)-1-(3-methoxybenzyl)-N-[4-[[N-methyl-N-(tetrahydropyran-4-yl)amino]methyl]phenyl]-2,3-dihydro-1-benzazepine-4-carboxamide]	107.5 to 108.5
CCCOCCOc1ccc(-c2ccc3c(c2)C=C(C(=O)Nc2ccc(CN(C)C4CCOCC4)cc2)CCN3CCCOC)cc1 [Compound 103, 1-(3-methoxypropyl)-N-[4-[[N-methyl-N-(tetrahydropyran-4-yl)amino]methyl]phenyl]-7-[4-(2-propoxyethoxy)phenyl]-2,3-dihydro-1H-1-benzazepine-4-carboxamide]	87 to 90
CC#CCN1CCC(C(=O)Nc2ccc(CN(C)C3CCOCC3)cc2)=Cc2cc(-c3ccc(OCCOCCCC)cc3)ccc21 [Compound 95, 7-[4-(2-butoxyethoxy)phenyl]-1-(2-butynyl)-N-[4-[N-methyl-N-(tetrahydropyran-4-yl)aminomethyl]phenyl]-2,3-dihydro-1-benzazepine-4-carboxamide]	129 to 131
CCCCOCCOc1ccc(-c2ccc3c(c2)C=C(C(=O)Nc2ccc(CN(C)C4CCOCC4)cc2)CCN3c2cnc(C)o2)cc1 [Compound 44, 7-[4-(2-butoxyethoxy)phenyl]-1-(2-methyloxazol-5-yl)-N-[4-[[N-methyl-N-(tetrahydro-2H-pyran-4-yl)amino]methyl]phenyl]-2,3-dihydro-1H-1-benzazepine-4-carboxamide]	125 to 128
CCOCCOc1ccc(-c2ccc3c(c2)C=C(C(=O)Nc2ccc(CN(C)C4CCOCC4)cc2)CCN3C)cc1 [Compound 9, 7-[4-(2-ethoxyethoxy)phenyl]-1-methyl-N-[4-[[N-methyl-N-(tetrahydro-2H-pyran-4-yl)amino]methyl]phenyl]-2,3-dihydro-1H-1-benzazepine-4-carboxamide]	122 to 125
CCCCOCCOc1ccc(-c2ccc3c(c2)C=C(C(=O)Nc2ccc(CN(C)C4CCOCC4)cc2)CCN3CC2CCCCC2)cc1 [Compound 34, 7-[4-(2-butoxyethoxy)phenyl]-1-cyclohexylmethyl-N-[4-[[N-methyl-N-(tetrahydro-2H-pyran-4-yl)amino]methyl]phenyl]-2,3-dihydro-1H-1-benzazepine-4-carboxamide]	115 to 117
CCCOCCOc1ccc(-c2ccc3c(c2)C=C(C(=O)Nc2ccc(CN(C)C4CCOCC4)cc2)CCN3Cc2cccs2)cc1 [Compound 59, N-[4-[[N-methyl-N-(tetrahydropyran-4-yl)amino]methyl]phenyl]-7-(4-propoxyethoxyphenyl)-1-(2-thienylmethyl)-2,3-dihydro-1-benzazepine-4-carboxamide]	104.5 to 105.5
